Reference: ChEMBL document CHEMBL5634141 (Eur J Med Chem, 2023)
Activity calls are given as the source filed them. No cut-off for these calls is given here.

Columns and labels:
[1] = tested on: MIA PaCa-2; assay: Induction of apoptosis in human MIA PaCa-2 cells assessed as late apoptotic cells at 30 nM incubated for 48 hrs by Annexin V-FITC staining based flow cytometry analysis (reference value: 5.69 %); assay type: functional
[2] = tested on: SW837; assay: Antiproliferative activity against human SW837 cells expressing KRAS G12C mutant assessed as relative cell viability at 30 nM incubated for 72 hrs in presence of selumetinib by CCK-8 assay; assay type: functional; settings: read-out: Activity
[3] = tested on: Calu-1; assay: Antiproliferative activity against human Calu-1 cells expressing KRAS G12C mutant assessed as relative cell viability at 30 nM incubated for 72 hrs by CCK-8 assay; assay type: functional; settings: Calu-1, read-out: Activity
[4] = tested on: NCI-H358; assay: Induction of apoptosis in human NCI-H358 cells assessed as late apoptotic cells at 100 nM incubated for 48 hrs by Annexin V-FITC staining based flow cytometry analysis (reference value: 5.20 %); assay type: functional
[5] = tested on: Calu-1; assay: Antiproliferative activity against human Calu-1 cells expressing KRAS G12C mutant assessed as relative cell viability at 30 nM incubated for 72 hrs in presence of daclolisib by CCK-8 assay; assay type: functional; settings: read-out: Activity
[6] = tested on: MIA PaCa-2; assay: Induction of apoptosis in human MIA PaCa-2 cells assessed as viable cells at 30 nM incubated for 48 hrs by Annexin V-FITC staining based flow cytometry analysis (reference value: 91.5 %); assay type: functional; settings: read-out: Activity
[7] = tested on: NCI-H23; assay: Antiproliferative activity against human NCI-H23 cells expressing KRAS G12C mutant assessed as relative cell viability at 30 nM incubated for 72 hrs in presence of infigratinib by CCK-8 assay; assay type: functional; settings: read-out: Activity
[8] = tested on: Mus musculus; assay: In vivo PROTAC activity at VHL/KRAS G12C mutant in BALB/c nude mouse xenografted with human MIA PaCa-2 cells assessed as decrease in KRAS level at 10 to 30 mg/kg, ip administered for 16 days by Western blot analysis; assay type: functional, organism-based; settings: dose 10-30 mg/kg, time 16.0 day
[9] = tested on: von Hippel-Lindau disease tumor suppressor/GTPase KRas (Homo sapiens), P01116+P40337 [G12C]; assay: PROTAC activity at VHL/KRAS G12C mutant in human MIA PaCa-2 cells assessed as induction of protein degradation in presence of MG132 by Western blot analysis; assay type: cell-based
[10] = tested on: MIA PaCa-2; assay: Inhibition of colony formation in human MIA PaCa-2 cells expressing KRAS G12C mutant assessed as reduction in cell number at 30 nM incubated for 14 days in presence of linsitinib by crystal violet staining based analysis; assay type: functional; settings: time 14.0 day
[11] = tested on: von Hippel-Lindau disease tumor suppressor/GTPase KRas (Homo sapiens), P01116+P40337 [G12C]; assay: Protac activity at VHL/KRAS G12C mutant in human NCI-H358 cells assessed as induction of protein degradation at 100 nM preincubated with VH032 for 6 hrs followed by compound addition and measured after 48 hrs by Western blot analysis; assay type: cell-based
[12] = tested on: NCI-H358; assay: Synergistic antiproliferative activity against human NCI-H358 cells expressing KRAS G12C mutant assessed as combination index at 30 nM incubated for 72 hrs in presence of […] by CCK-8 assay; assay type: functional
[13] = tested on: NCI-H23; assay: Antiproliferative activity against human NCI-H23 cells expressing KRAS G12C mutant assessed as relative cell viability at 30 nM incubated for 72 hrs in presence of MK-2206 by CCK-8 assay; assay type: functional; settings: read-out: Activity
[14] = tested on: SW837; assay: Antiproliferative activity against human SW837 cells expressing KRAS G12C mutant assessed as relative cell viability at 30 nM incubated for 72 hrs in presence of infigratinib by CCK-8 assay; assay type: functional; settings: read-out: Activity
[15] = tested on: MIA PaCa-2; assay: Antiproliferative activity against human MIA PaCa-2 cells expressing KRAS G12C mutant assessed as reduction of cell growth by measuring fold decrease in IC50 incubated for 72 hrs in presence of SHP099 by CCK-8 assay; assay type: functional
[16] = tested on: von Hippel-Lindau disease tumor suppressor/GTPase KRas (Homo sapiens), P01116+P40337 [G12C]; assay: PROTAC activity at VHL/KRAS G12C mutant in human NCI-H358 cells assessed as inhibition of ERK phosphorylation incubated for 48 hrs by Western blotting analysis; assay type: cell-based; settings: dose 10-10000 nM
[17] = tested on: NCI-H358; assay: Synergistic antiproliferative activity against human NCI-H358 cells expressing KRAS G12C mutant assessed as combination index incubated for 72 hrs in presence of linsitinib by CCK-8 assay; assay type: functional
[18] = tested on: MIA PaCa-2; assay: Antiproliferative activity against human MIA PaCa-2 cells expressing KRAS G12C mutant assessed as reduction of cell growth by measuring fold decrease in IC50 incubated for 72 hrs in presence of AZD4573 by CCK-8 assay; assay type: functional
[19] = tested on: MIA PaCa-2; assay: Antiproliferative activity against human MIA PaCa-2 cells expressing KRAS G12C mutant assessed as relative cell viability at 30 nM incubated for 72 hrs in presence of MK-2206 by CCK-8 assay; assay type: functional; settings: read-out: Activity
[20] = tested on: von Hippel-Lindau disease tumor suppressor/GTPase KRas (Homo sapiens), P01116+P40337 [G12C]; assay: PROTAC activity at VHL/KRAS G12C mutant in human MIA PaCa-2 cells assessed as induction of protein degradation in presence of MLN4924 by Western blot analysis; assay type: cell-based
[21] = tested on: Calu-1; assay: Antiproliferative activity against human Calu-1 cells expressing KRAS G12C mutant assessed as relative cell viability at 30 nM incubated for 72 hrs in presence of infigratinib by CCK-8 assay; assay type: functional; settings: read-out: Activity
[22] = tested on: von Hippel-Lindau disease tumor suppressor/GTPase KRas (Homo sapiens), P01116+P40337 [G12C]; assay: PROTAC activity at VHL/KRAS G12C mutant in human NCI-H358 cells assessed as induction of protein degradation at 100 nM incubated for 1 to 8 days by Western blotting analysis; assay type: cell-based; settings: time 1-8 day
[23] = tested on: NCI-H358; assay: Induction of apoptosis in human NCI-H358 cells assessed as necrotic cells at 100 nM incubated for 48 hrs by Annexin V-FITC staining based flow cytometry analysis (reference value: 1.62 %); assay type: functional
[24] = tested on: MIA PaCa-2; assay: Induction of apoptosis in human MIA PaCa-2 cells assessed as late apoptotic cells at 100 nM incubated for 48 hrs by Annexin V-FITC staining based flow cytometry analysis (reference value: 5.69 %); assay type: functional
[25] = Half life in ICR mouse at 30 mg/kg, ip measured after 24 hrs by LC-MS/MS analysis; assay type: ADME, organism-based; settings: in vivo
[26] = tested on: NCI-H358; assay: Inhibition of cell migration in human NCI-H358 cells incubated for 12 hrs by wound healing assay; assay type: functional, cell-based; settings: dose 30-300 nM
[27] = tested on: von Hippel-Lindau disease tumor suppressor/GTPase KRas (Homo sapiens), P01116+P40337 [G12C]; assay: PROTAC activity at VHL/KRAS G12C mutant in human MIA PaCa-2 cells assessed as inhibition of Akt phosphorylation at 100 nM incubated for 1 to 8 days by Western blotting analysis; assay type: cell-based; settings: time 1-8 day
[28] = Toxicity in BALB/c nude mouse xenografted with human MIA PaCa-2 cells assessed as change in body weight at 10 to 30 mg/kg, ip measured after 16 days; assay type: organism-based; settings: in vivo, 384 h, dose 10-30 mg/kg, time 16 day
[29] = target: von Hippel-Lindau disease tumor suppressor/GTPase KRas (Homo sapiens, UniProt P01116+P40337, G12C); assay: PROTAC activity at VHL/KRAS G12C mutant in human NCI-H358 cells assessed as induction of protein degradation incubated for 72 hrs by Western blot analysis; assay type: cell-based
Sequence of von Hippel-Lindau disease tumor suppressor/GTPase KRas (P01116 whole entry G12C, stated change not applied): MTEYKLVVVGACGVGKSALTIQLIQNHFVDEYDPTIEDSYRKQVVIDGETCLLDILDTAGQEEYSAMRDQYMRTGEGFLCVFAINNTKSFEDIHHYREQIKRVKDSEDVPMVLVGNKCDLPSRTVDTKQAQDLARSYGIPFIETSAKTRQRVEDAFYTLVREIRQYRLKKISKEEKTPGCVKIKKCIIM
Sequence of von Hippel-Lindau disease tumor suppressor/GTPase KRas (P40337 whole entry partner, stated change not applied): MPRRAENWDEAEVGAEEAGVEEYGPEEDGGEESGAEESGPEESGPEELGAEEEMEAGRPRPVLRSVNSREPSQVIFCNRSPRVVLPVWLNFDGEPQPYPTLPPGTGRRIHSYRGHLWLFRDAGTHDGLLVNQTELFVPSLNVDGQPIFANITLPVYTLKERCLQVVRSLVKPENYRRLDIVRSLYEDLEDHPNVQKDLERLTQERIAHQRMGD

[30] = tested on: MIA PaCa-2; assay: Antitumor activity against human MIA PaCa-2 cells xenografted in BALB/c nude mouse assessed as reduction in percentage of KRAS-positive cells at 10 to 30 mg/kg, ip administered for 16 days by immunohistochemical staining analysis; assay type: functional, organism-based; settings: dose 10-30 mg/kg, time 16.0 day

C=CC(=O)N1CCN(c2nc(=O)n(-c3c(C)ccnc3C(C)C)c3nc(-c4c(F)cccc4OCC4CCN(CCCC(=O)N[C@H](C(=O)N5C[C@H](O)C[C@H]5C(=O)NCc5ccc(-c6scnc6C)cc5)C(C)(C)C)CC4)c(F)cc23)[C@@H](C)C1
Activity [1]: 7.18%
viability at 0.03 µM [2]: 0.2%
viability at 0.03 µM [3]: 77%
Activity [4]: 10%
viability at 0.03 µM [5]: 0.12%
viability at 0.03 µM [6]: 88.8%
viability at 0.03 µM [7]: 0.41%
Activity [8]: Active
Activity [9]: inactive
inhibition [10]: Active
Activity [11]: inactive
CI [12]: <1
viability at 0.03 µM [13]: 0.44%
viability at 0.03 µM [14]: 0.34%
fold change (FC) [15]: ~4
Activity [16]: Dose-Dependent Effect
CI [17]: <1
fold change (FC) [18]: ~9
viability at 0.03 µM [19]: 0.24%
Activity [20]: inactive
viability at 0.03 µM [21]: 0.36%
Activity [22]: Active
Activity [23]: 1.12%
Activity [24]: 13.4%
half-life [25]: 3.87 h
inhibition [26]: Dose-Dependent Effect
Activity [27]: Active
Activity [28]: Non-Toxic
DC50 [29]: 67 nM
Activity [30]: Active
